From patent publication US20240327389A1, “LACTONE AND LACTAM CONTAINING COMPOUNDS USEFUL AS IMMUNOMODULATORS” (BRISTOL-MYERS SQUIBB COMPANY, priority 2021, published 2024)

The molecules below were run against PD-1/PD-L1 interaction (PD-1-Ig / PD-L1-His) (Homo sapiens (Human), UniProt Q9NZQ7) (assay: PD-1/PD-L1 Homogenous Time-Resolved Fluorescence (HTRF) binding assay). Conditions: PD-L1-His 10 nM final, PD-1-Ig 20 nM final.
From the text: The ability of the compounds of the invention to bind to PD-L1 was investigated using a PD-1/PD-L1 Homogenous Time-Resolved Fluorescence (HTRF) binding assay.
The interaction of PD-1 and PD-L1 can be assessed using soluble, purified preparations of the extracellular domains of the two proteins. The PD-1 and PD-L1 protein extracellular domains were expressed as fusion proteins with detection tags, for PD-1, the tag was the Fc portion of Immunoglobulin (PD-1-Ig) and for PD-L1 it was the 6 histidine motif (PD-L1-His). All binding studies were performed in an HTRF assay buffer consisting of dPBS supplemented with 0.1% […] bovine serum albumin and 0.05% (v/v) Tween-20. For the h/PD-L1-His binding assay, inhibitors were pre-incubated with PD-L1-His (10 nM final) for 15 m in 4 μl of assay buffer, followed by addition of PD-1-Ig (20 nM final) in 1 μl of assay buffer and further incubation for 15 m. HTRF detection was achieved using europium crypate-labeled anti-Ig (1 nM final) and allophycocyanin (APC) labeled anti-His (20 nM final). Antibodies were diluted in HTRF detection buffer and 5 μl was dispensed on top of the binding reaction. The reaction mixture was allowed to equilibrate for 30 minutes and the resulting signal (665 nm/620 nm ratio) was obtained using an EnVision fluorometer. Additional binding assays were established between the human proteins PD-1-Ig/PD-L2-His (20 & 5 nM, respectively) and CD80-His/PD-L1-Ig (100 & 10 nM, respectively).
Recombinant Proteins: Human PD-1 (25-167) with a C-terminal human Fc domain of immunoglobulin G (Ig) epitope tag [hPD-1 (25-167)-3S-IG] and human PD-L1 (18-239) with a C-terminal His epitope tag [hPD-L1(18-239)-TVMV-His] were expressed in HEK293T cells and purified sequentially by ProteinA affinity chromatography and size exclusion chromatography. Human PD-L2-His and CD80-His was obtained through commercial sources.
Homogenous Time-Resolved Fluorescence (HTRF) Assays of Binding of Soluble PD-1 to Soluble PD-L1. Soluble PD-1 and soluble PD-L1 refers to proteins with carboxyl-end truncations that remove the transmembrane-spanning regions and are fused to heterologous sequences, specifically the Fc portion of the human immunoglobuling G sequence (Ig) or the hexahistidine epitope tag (His). All binding studies were performed in an HTRF assay buffer consisting of dPBS supplemented with 0.1% (w/v) bovine serum albumin and 0.05% (v/v) Tween-20. For the PD-1-Ig/PD-L1-His binding assay, inhibitors were pre-incubated with PD-L1-His (10 nM final) for 15 m in 4 μl of assay buffer, followed by addition of PD-1-Ig (20 nM final) in 1 μl of assay buffer and further incubation for 15 m. PD-L1 fusion proteins from either human, cynomologous macaques, mouse, or other species were used. HTRF detection was achieved using europium crypate-labeled anti-Ig monoclonal antibody (1 nM final) and allophycocyanin (APC) labeled anti-His monoclonal antibody (20 nM final). Antibodies were diluted in HTRF detection buffer and 5 μl was dispensed on top of binding reaction. The reaction was allowed to equilibrate for 30 minutes and signal (665 nm/620 nm ratio) was obtained using an EnVision fluorometer. Additional binding assays were established between PD-1-Ig/PD-L2-His (20 and 5 nM, respectively), CD80-His/PD-L1-Ig (100 and 10 nM, respectively) and CD80-His/CTLA4-Ig (10 and 5 nM, respectively).
Recombinant Proteins. Carboxyl-truncated human PD-1 (amino acids 25-167) with a C-terminal human Ig epitope tag [hPD-1 (25-167)-3S-IG] and human PD-L1 (amino acids 18-239) with a C-terminal His epitope tag [hPD-L1(19-239)-tobacco vein mottling virus protease cleavage site (TVMV)-His] were expressed in HEK293T cells and purified sequentially by recombinant Protein A affinity chromatography and size exclusion chromatography. Human PD-L2-His (Sino Biologicals), CD80-His (Sino Biologicals), CTLA4-Ig (RnD Systems) were all obtained through commercial sources.

Chain of PD-1/PD-L1 interaction (PD-1-Ig / PD-L1-His) (Q9NZQ7 18-239): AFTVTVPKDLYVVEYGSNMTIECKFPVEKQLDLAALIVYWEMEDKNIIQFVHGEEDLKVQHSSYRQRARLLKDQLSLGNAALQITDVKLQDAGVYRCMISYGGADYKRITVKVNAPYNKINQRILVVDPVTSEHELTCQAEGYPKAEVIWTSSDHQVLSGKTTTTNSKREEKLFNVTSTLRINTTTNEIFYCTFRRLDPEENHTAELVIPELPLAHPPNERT

SMILES | IC50 [nM]
Cc1c(COc2cc(OCc3cncc(C#N)c3)c(CNC3CCN(C)C3=O)cc2Cl)cccc1-c1cccc(OCC2CCCN(C)C2)c1Cl (centres unmarked) [Compound 1012] | 2.9
COc1cc(OCc2cccc(-c3cccc(OCC4CCCN(C)C4)c3Cl)c2C)c(Cl)cc1CNC1CCCNC1=O (centres unmarked) [Compound 1035] | 2.1
Cc1c(COc2cc(OCc3cncc(C#N)c3)c(CNC3CCNC3=O)cc2Cl)cccc1-c1cccc(OCC2CCCN(C)C2)c1Cl (centres unmarked) [Compound 1027] | 2.5
Cc1c(COc2cc(O)c(CN[C@H]3COC(=O)C3)cc2Cl)cccc1-c1cccc(OCC2CCCN(C)C2)c1Cl (some centres unmarked) [Compound 1028] | 44.5
Cc1c(COc2cc(OCc3cncc(C#N)c3)c(CN[C@H]3CCOC3=O)cc2Cl)cccc1-c1cccc(COc2cc(OCc3cncc(C#N)c3)c(CN[C@H]3CCOC3=O)cc2Cl)c1C [Compound 1019] | 18.3
Cc1c(COc2cc(OCc3cncc(C#N)c3)c(CNC3CC(C)(C)OC3=O)cc2Cl)cccc1-c1cccc(COc2cc(OCc3cncc(C#N)c3)c(CNC3CC(C)(C)OC3=O)cc2Cl)c1C (centres unmarked) [Compound 1022] | 145
COc1cc(OCc2cccc(-c3cccc(OCC4CCCN(C)C4)c3Cl)c2C)c(Cl)cc1CNC1(C)CCOC1=O (centres unmarked) [Compound 1036] | 7.3
COc1cc(OCc2cccc(-c3cccc(OCC4CCCN(C)C4)c3Cl)c2C)c(Cl)cc1CN[C@H]1CCOC1=O (some centres unmarked) [Compound 1040] | 6.7
Cc1c(COc2cc(OCc3cncc(C#N)c3)c(CNC3CCOC3=O)cc2Cl)cccc1-c1cccc(COc2cc(OCc3cncc(C#N)c3)c(CNC3CCOC3=O)cc2Cl)c1C (centres unmarked) [Compound 1018] | 15
Cc1c(COc2cc3c(cc2Cl)CN(C2CCOC2=O)CC(O)CO3)cccc1-c1cccc(OCC2CCCN(C)C2)c1Cl (centres unmarked) [Compound 1049] | 11.5
Cc1c(COc2cc(OCc3cncc(C#N)c3)c(CNC3CC(C)OC3=O)cc2Cl)cccc1-c1cccc(OCC2CCCN(C)C2)c1Cl (centres unmarked) [Compound 1006] | 2.6
Cc1c(COc2cc(O)c(CNC3CC(C)OC3=O)cc2Cl)cccc1-c1cccc(OCC2CCCN(C)C2)c1Cl (centres unmarked) [Compound 1030] | 80.1
Cc1c(COc2cc(OCc3cncc(C#N)c3)c(CNC3CC(=O)OC3(C)C)cc2Cl)cccc1-c1cccc(COc2cc(OCc3cncc(C#N)c3)c(CNC3CC(=O)OC3(C)C)cc2Cl)c1C (centres unmarked) [Compound 1021] | 121
Cc1c(COc2cc(OCc3cncc(C#N)c3)c(CNC3C(=O)OCC3(C)C)cc2Cl)cccc1-c1cccc(OCC2CCCN(C)C2)c1Cl (centres unmarked) [Compound 1008] | 4.4
Cc1c(COc2cc(OCc3cncc(C#N)c3)c(CN[C@H]3COC(=O)C3)cc2Cl)cccc1-c1cccc(OCC2CCCN(C)C2)c1Cl (some centres unmarked) [Compound 1003] | 2
C=C1COc2cc(OCc3cccc(-c4cccc(OCC5CCCN(C)C5)c4Cl)c3C)c(Cl)cc2CN(C2CCOC2=O)C1 (centres unmarked) [Compound 1048] | 3830
COc1cc(OCc2cccc(-c3cccc(OCC4CCCN(C)C4)c3Cl)c2C)c(Cl)cc1CNC1CC(C)(C)OC1=O (centres unmarked) [Compound 1034] | 7.4
COc1cc(OCc2cccc(-c3cccc(OCC4CCCN(C)C4)c3Cl)c2C)c(Cl)cc1CN[C@H]1CCNC1=O (some centres unmarked) [Compound 1044] | 5.6
Cc1c(COc2cc(OCc3cncc(C#N)c3)c(CNC3C(=O)OCC3(C)C)cc2Cl)cccc1-c1cccc(COc2cc(OCc3cncc(C#N)c3)c(CNC3C(=O)OCC3(C)C)cc2Cl)c1C (centres unmarked) [Compound 1023] | > 10000
Cc1c(COc2cc(O)c(CN[C@H]3CCOC3=O)cc2Cl)cccc1-c1cccc(OCC2CCCN(C)C2)c1Cl (some centres unmarked) [Compound 1031] | 39.3
Cc1c(COc2cc(OCc3cncc(C#N)c3)c(CN(C)C3CC(C)OC3=O)cc2Cl)cccc1-c1cccc(COc2cc(OCc3cncc(C#N)c3)c(CN(C)C3CC(C)OC3=O)cc2Cl)c1C (centres unmarked) [Compound 1053] | 1470
COc1cc(OCc2cccc(-c3cccc(OCC4CCCN(C)C4)c3Cl)c2C)c(Cl)cc1CN[C@H]1CCCNC1=O (some centres unmarked) [Compound 1045] | 3.6
Cc1c(COc2cc(OCc3cncc(C#N)c3)c(CNC3CC(C)OC3=O)cc2Cl)cccc1-c1cccc(COc2cc(OCc3cncc(C#N)c3)c(CNC3CC(C)OC3=O)cc2Cl)c1C (centres unmarked) [Compound 1024] | 21.4

Results, then the molecule that gave them:

IC50 [nM] | SMILES
19.6 | COc1cc(OCc2cccc(-c3cccc(OCC4CCCN(C)C4)c3Cl)c2C)c(Cl)cc1CNC1(C)CC(C)(C)OC1=O (centres unmarked) [Compound 1039]
5.6 | COc1cc(OCc2cccc(-c3cccc(OCC4CCCN(C)C4)c3Cl)c2C)c(Cl)cc1CN[C@H]1COC(=O)C1 (some centres unmarked) [Compound 1042]
136 | COc1cc(OCc2cccc(-c3cccc(OCC4CCCN(C)C4)c3Cl)c2C)c(Cl)cc1CNC1C(=O)OCC1(C)C (centres unmarked) [Compound 1037]
3.5 | Cc1c(COc2cc(OCc3cncc(C#N)c3)c(CNC3CC(C)(C)OC3=O)cc2Cl)cccc1-c1cccc(OCC2CCCN(C)C2)c1Cl (centres unmarked) [Compound 1007]
132 | Cc1c(COc2cc(O)c(CNC3(C)CCOC3=O)cc2Cl)cccc1-c1cccc(OCC2CCCN(C)C2)c1Cl (centres unmarked) [Compound 1029]
112 | Cc1c(COc2cc(OCc3cncc(C#N)c3)c(CO)cc2Cl)cccc1-c1cccc(COc2cc(OCc3cncc(C#N)c3)c(CNC3(C)CCOC3=O)cc2Cl)c1C (centres unmarked) [Compound 1017]
3.1 | COc1cc(OCc2cccc(-c3cccc(OCC4CCCN(C)C4)c3Cl)c2C)c(Cl)cc1CNC1CCC(=O)NC1=O (centres unmarked) [Compound 1046]
4 | Cc1c(COc2cc(OCc3cncc(C#N)c3)c(CN[C@H]3CCCNC3=O)cc2Cl)cccc1-c1cccc(OCC2CCCN(C)C2)c1Cl (some centres unmarked) [Compound 1013]
7.8 | COc1cc(OCc2cccc(-c3cccc(OCC4CCCN(C)C4)c3Cl)c2C)c(Cl)cc1CNC1CCOC1=O (centres unmarked) [Compound 1032]
388 | Cc1c(COc2cc3c(cc2Cl)CN(C2CCOC2=O)C(=O)CO3)cccc1-c1cccc(OCC2CCCN(C)C2)c1Cl (centres unmarked) [Compound 1047]
3.5 | Cc1c(COc2cc(OCc3cncc(C#N)c3)c(CN[C@@H]3CCOC3=O)cc2Cl)cccc1-c1cccc(OCC2CCCN(C)C2)c1Cl (some centres unmarked) [Compound 1002]
11.5 | COc1cc(OCc2cccc(-c3cccc(OCC4CCCN(C)C4)c3Cl)c2C)c(Cl)cc1CNC1CC(C)OC1=O (centres unmarked) [Compound 1033]
1.7 | Cc1c(COc2cc(OCc3cncc(C#N)c3)c(CNC3(C)CCOC3=O)cc2Cl)cccc1-c1cccc(OCC2CCCN(C)C2)c1Cl (centres unmarked) [Compound 1005]
47.3 | CC(=O)N(Cc1cc(Cl)c(COc2cccc(-c3cccc(COc4cc(OCc5cncc(C#N)c5)c(CN(C(C)=O)[C@@H]5COC(=O)C5)cc4Cl)c3C)c2C)cc1OCc1cncc(C#N)c1)[C@@H]1COC(=O)C1 [Compound 1050]
3.2 | Cc1c(COc2cc(OCc3cncc(C#N)c3)c(CNC3CCCNC3=O)cc2Cl)cccc1-c1cccc(OCC2CCCN(C)C2)c1Cl (centres unmarked) [Compound 1014]
7.3 | Cc1c(COc2cc(OCc3cncc(C#N)c3)c(CN[C@@H]3CCOC3=O)cc2Cl)cccc1-c1cccc(COc2cc(OCc3cncc(C#N)c3)c(CN[C@@H]3CCOC3=O)cc2Cl)c1C [Compound 1020]
383 | Cc1c(COc2cc(OCc3cncc(C#N)c3)c(CN(C)C3(C)CCOC3=O)cc2Cl)cccc1-c1cccc(COc2cc(OCc3cncc(C#N)c3)c(CN(C)C3(C)CCOC3=O)cc2Cl)c1C (centres unmarked) [Compound 1051]
> 10000 | Cc1c(COc2cc(OCc3cncc(C#N)c3)c(CNC3(C)CC(C)(C)OC3=O)cc2Cl)cccc1-c1cccc(COc2cc(OCc3cncc(C#N)c3)c(CNC3(C)CC(C)(C)OC3=O)cc2Cl)c1C (centres unmarked) [Compound 1025]
